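96-well plates; 48 h exposure; 5 concentrations. Endpoints by linear interpolation between flanking doses. Not reached: highest tested concentration assigned. TGI is the concentration that stops growth completely.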
Columns and labels:
Test in all cases: NCI anticancer screen, dose series, 48 h
[1] = system: NCI-H460 lung
[2] = system: RPMI-8226 leukemia
[3] = system: M14 melanoma
[4] = system: A549 NSCLC
[5] = system: OVCAR-5 ovarian
[6] = system: TK-10 renal
[7] = system: IGROV1 ovarian
[8] = system: SK-MEL-2 melanoma
[9] = system: HT29 colon
[10] = system: CAKI-1 renal
[11] = system: SNB-19 CNS
[12] = system: NCI-H226 lung
[13] = system: MDA-MB-231 breast
[14] = system: SF-539 CNS
[15] = system: U251 CNS
[16] = system: HCC-2998 colon
[17] = system: SNB-75 CNS
[18] = system: COLO 205 colon
[19] = system: MDA-N
[20] = system: RXF 393 renal
[21] = system: T-47D breast
[22] = system: SR leukemia
[23] = system: EKVX NSCLC
[24] = system: MALME-3M melanoma
[25] = system: SF-295 CNS
[26] = system: K-562 leukemia
[27] = system: MCF7 breast
[28] = system: DU-145 prostate
[29] = system: MDA-MB-435
[30] = system: HCT-15 colon
[31] = system: SK-MEL-28 melanoma
[32] = system: OVCAR-4 ovarian
[33] = system: HOP-92 NSCLC
[34] = system: PC-3 prostate
[35] = system: CCRF-CEM leukemia
[36] = system: MOLT-4 leukemia
[37] = system: SK-OV-3 ovarian
[38] = system: OVCAR-8 ovarian
[39] = system: NCI/ADR-RES ovarian
[40] = system: UACC-62 melanoma
[41] = system: 786-0 renal
[42] = system: SN12C renal
[43] = system: SW-620 colon
[44] = system: HOP-62 NSCLC
[45] = system: ACHN renal
[46] = system: NCI-H522 lung
[47] = system: HS 578T breast
[48] = system: LOX IMVI melanoma
[49] = system: HCT-116 colon
[50] = system: UACC-257 melanoma
[51] = system: SK-MEL-5 melanoma
[52] = system: UO-31 renal
[53] = system: NCI-H23 lung
[54] = system: BT-549 breast
[55] = system: OVCAR-3 ovarian
[56] = system: SF-268 CNS
[57] = system: HL-60(TB) leukemia
[58] = system: KM12 colon
[59] = system: A498 renal
[60] = system: SNB-78 CNS
[61] = system: DMS 273 small cell lung
[62] = system: KM20L2 colon
[63] = system: LXFL 529 NSCLC
[64] = system: DMS 114 small cell lung
[65] = system: HOP-18 NSCLC
[66] = system: DLD-1 colon
[67] = system: M19-MEL melanoma

## OCCN(CCO)c1ccc2c(C(F)(F)F)cc(C(F)(F)F)nc2n1
[1]
  TGI: > 100 µM
[2]
  TGI: > 100 µM
[3]
  TGI: > 100 µM
[4]
  TGI: > 100 µM
[5]
  TGI: > 100 µM
[6]
  TGI: > 100 µM
[7]
  TGI: > 100 µM
[8]
  TGI: > 100 µM
[9]
  TGI: > 100 µM
[10]
  TGI: > 100 µM
[11]
  TGI: > 100 µM
[12]
  TGI: > 100 µM
[13]
  TGI: > 100 µM
[14]
  TGI: > 100 µM
[15]
  TGI: > 100 µM
[16]
  TGI: > 100 µM
[17]
  TGI: > 100 µM
[18]
  TGI: > 100 µM
[19]
  TGI: > 100 µM
[20]
  TGI: > 100 µM
[21]
  TGI: > 100 µM
[22]
  TGI: > 100 µM
[23]
  TGI: > 100 µM
[24]
  TGI: > 100 µM
[25]
  TGI: > 100 µM
[26]
  TGI: > 100 µM
[27]
  TGI: > 100 µM
[28]
  TGI: > 100 µM
[29]
  TGI: > 100 µM
[30]
  TGI: > 100 µM
[31]
  TGI: > 100 µM
[32]
  TGI: > 100 µM
[33]
  TGI: > 100 µM
[34]
  TGI: > 100 µM
[35]
  TGI: > 100 µM
[36]
  TGI: > 100 µM
[37]
  TGI: > 100 µM
[38]
  TGI: > 100 µM
[39]
  TGI: > 100 µM
[40]
  TGI: > 100 µM
[41]
  TGI: > 100 µM
[42]
  TGI: > 100 µM
[43]
  TGI: > 100 µM
[44]
  TGI: > 100 µM
[45]
  TGI: > 100 µM
[46]
  TGI: > 100 µM
[47]
  TGI: > 100 µM
[48]
  TGI: > 100 µM
[49]
  TGI: > 100 µM
[50]
  TGI: > 100 µM
[51]
  TGI: > 100 µM
[52]
  TGI: > 100 µM
[53]
  TGI: > 100 µM
[54]
  TGI: > 100 µM
[55]
  TGI: > 100 µM
[56]
  TGI: > 100 µM
[57]
  TGI: > 100 µM
[58]
  TGI: > 100 µM
[59]
  TGI: > 100 µM

## NC1CC(=O)c2csc(Br)c21 (configuration not stated)
[1]
  TGI: > 67.4 µM
[2]
  TGI: 34.2 µM
[3]
  TGI: > 53.6 µM
[4]
  TGI: > 100 µM
[5]
  TGI: 29.3 µM
[6]
  TGI: 27.6 µM
[7]
  TGI: 25.4 µM
[8]
  TGI: 31.3 µM
[9]
  TGI: 43.8 µM
[10]
  TGI: 27.5 µM
[11]
  TGI: > 80.3 µM
[12]
  TGI: 69.2 µM
[13]
  TGI: > 53.6 µM
[14]
  TGI: 8.24 µM
[15]
  TGI: > 60 µM
[16]
  TGI: 34.6 µM
[17]
  TGI: > 79.5 µM
[18]
  TGI: > 51.4 µM
[19]
  TGI: 28.4 µM
[20]
  TGI: 36 µM
[21]
  TGI: > 59.3 µM
[22]
  TGI: 47.5 µM
[23]
  TGI: 33.1 µM
[24]
  TGI: 33.9 µM
[25]
  TGI: > 100 µM
[26]
  TGI: > 82.4 µM
[27]
  TGI: 68 µM
[28]
  TGI: > 52.1 µM
[29]
  TGI: 32.9 µM
[30]
  TGI: 41.2 µM
[31]
  TGI: 37.9 µM
[32]
  TGI: 30.5 µM
[33]
  TGI: 24.5 µM
[34]
  TGI: 28.4 µM
[35]
  TGI: > 100 µM
[36]
  TGI: 46.8 µM
[37]
  TGI: > 100 µM
[38]
  TGI: 33.6 µM
[39]
  TGI: 44.4 µM
[40]
  TGI: 33.2 µM
[41]
  TGI: > 50.7 µM
[42]
  TGI: > 44.3 µM
[43]
  TGI: 24.8 µM
[44]
  TGI: > 72 µM
[45]
  TGI: 32.2 µM
[46]
  TGI: 8.21 µM
[47]
  TGI: 46.5 µM
[48]
  TGI: 29 µM
[49]
  TGI: > 44.2 µM
[50]
  TGI: 34.8 µM
[51]
  TGI: > 59.2 µM
[52]
  TGI: 30.7 µM
[53]
  TGI: 30.8 µM
[54]
  TGI: 26.5 µM
[55]
  TGI: 30.7 µM
[56]
  TGI: 44.1 µM
[57]
  TGI: 61.3 µM
[58]
  TGI: > 57.9 µM
[59]
  TGI: > 57.9 µM

## CC(c1ccc(Br)cc1)C(C(=O)O)C(=O)O (configuration not stated)
[60]
  TGI: > 100 µM
[1]
  TGI: > 100 µM
[2]
  TGI: > 100 µM
[3]
  TGI: > 100 µM
[4]
  TGI: > 100 µM
[5]
  TGI: > 100 µM
[6]
  TGI: > 100 µM
[7]
  TGI: > 100 µM
[8]
  TGI: > 100 µM
[9]
  TGI: > 100 µM
[61]
  TGI: > 100 µM
[62]
  TGI: > 100 µM
[10]
  TGI: > 100 µM
[11]
  TGI: > 100 µM
[12]
  TGI: > 100 µM
[15]
  TGI: > 100 µM
[16]
  TGI: > 100 µM
[17]
  TGI: > 100 µM
[18]
  TGI: > 100 µM
[20]
  TGI: > 100 µM
[22]
  TGI: > 100 µM
[23]
  TGI: > 100 µM
[24]
  TGI: > 100 µM
[25]
  TGI: > 100 µM
[26]
  TGI: > 100 µM
[30]
  TGI: > 100 µM
[31]
  TGI: > 100 µM
[32]
  TGI: > 100 µM
[63]
  TGI: > 100 µM
[64]
  TGI: > 100 µM
[35]
  TGI: > 100 µM
[36]
  TGI: > 100 µM
[37]
  TGI: > 100 µM
[38]
  TGI: > 100 µM
[40]
  TGI: > 100 µM
[41]
  TGI: > 100 µM
[42]
  TGI: > 100 µM
[65]
  TGI: > 100 µM
[43]
  TGI: > 100 µM
[44]
  TGI: > 100 µM
[45]
  TGI: > 100 µM
[46]
  TGI: > 100 µM
[48]
  TGI: > 100 µM
[66]
  TGI: > 100 µM
[67]
  TGI: > 100 µM
[49]
  TGI: > 100 µM
[50]
  TGI: > 100 µM
[51]
  TGI: > 100 µM
[52]
  TGI: > 100 µM
[53]
  TGI: > 100 µM
[55]
  TGI: > 100 µM
[56]
  TGI: > 100 µM
[57]
  TGI: > 100 µM
[58]
  TGI: > 100 µM

Source: PubChem BioAssay (NCI)
